Test system: HeLa cells
Assay: High-throughput image-based multivariate phenotypic profiling (d-profiles) of the 100-compound compendium by fluorescence microscopy
Type: cell-based, human
Details: for compound closest to first d-profile / compound closest to second d-profile: compounds with multiple d-profiles
Protocol: To illustrate the performance of the present multivariate approach, the disclosed methods were applied to a compendium of fluorescence microscopy images in which HeLa cells were treated with 100 compounds, dissolved in dimethyl sulfoxide (DMSO), over 13 threefold titrations as shown in FIGS. 5A and 5B. The compounds represented approximately 20 categories of activities as shown in the table of FIG. 6, selected to cover mechanisms of toxicity, signaling pathways, and therapeutic targets in cancer and other diseases. Compound effects were assayed in duplicate on 384-well plates, using four sets of multiplexed molecular markers (DNA-SC35-anillin; DNA-p53-cFos; DNA-p38-pERK; DNA-mirotubule-actin). On average, 2413±852 (mean±standard deviation) cells were captured per well, from 103,580 images per marker set, to yield a total of ˜37 million individual identified cells. Cells treated with DMSO alone were used as controls.
Although most of these features were derived from the measurements of individual markers, some features measured information from more than one marker (such as the spatial correlation between the intensities of two different markers).
Due to biological and experimental variability, the significance thresholds of classification accuracy at p=0.05 estimated on every plate were much higher than 50% (FIGS. 8A-D, lower panels, dashed lines), and occasionally could reach as high as 90%. Therefore, well-to-well variability, even within the control population, could be high and should not be ignored.
To simulate a drug screen for compounds of similar target to a known compound, a d-profile was selected to be the reference profile, while all other d-profiles from the compendium were used as blinded test profiles. Similarity scores between the reference profile and all other test profiles were computed and ranked. The test profiles that were most similar to the reference profile were selected as “drug candidates.”
For each reference profile, the performance in identifying test profiles was estimated with similar a target on each marker set by using prior target annotations as the “gold standard.” […] was used as the performance evaluation criterion (Methods). “On-target” effects were defined as d-profiles whose AUC values were significant (p<0.05), and all other d-profiles were defined as “off-target.” 73%, 40%, 67%, and 56% of the compounds with more than one d-profile and at least one on-target d-profile had at least one off-target d-profile on the DNA-SC35-anillin, DNA-p53-cFos, DNA-p38-pERK and DNA-MT-actin marker sets respectively. […] Thus, the present method can identify dose-dependent secondary or tertiary responses that were very different from the primary responses.
The compound category of a novel d-profile may be inferred by comparison to a collection of previously categorized reference d-profiles. […] Although all of these compounds are histone deacetylase inhibitors, oxamflatin, trichostatin, and scriptaid are hydroxamic acids having very different chemical structures than apicidin, a cyclic tetrapeptide. […] For a d-profile, an accurate prediction was made when its most similar d-profile was annotated to the same target category.

[1] = drug screening simulation against prior target annotations

## Oxamflatin
DNA-p38-pERK marker set
  most similar d-profiles (category prediction): most similar to trichostatin, scriptaid, and apicidin

## CC[C@@]1(O)C(=O)OCc2c1cc1n(c2=O)Cc2cc3ccccc3nc2-1 [Camptothecin]
Category prediction
  compound closest to first d-profile: closest to another topoisomerase inhibitor, etoposide
  compound closest to second d-profile: closest to a CDK inhibitor, alsterpullone
[1]
  off-target effects (d-profiles whose AUC not significant): one off-target effect
  on-target effects (d-profiles whose AUC values were significant, p<0.05): one on-target effect

## COc1cccc2c1C(=O)c1c(O)c3c(c(O)c1C2=O)C[C@@](O)(C(=O)CO)C[C@@H]3O[C@H]1C[C@H](N)[C@H](O)[C@H](C)O1 [doxorubixin]
In each of the four marker sets
  number of features needed to detect compound effects after recursive feature removal: only a single feature

## COC(=O)Nc1nc2ccc(C(=O)c3cccs3)cc2[nH]1 [nocadazale, Nocodazole]
Category prediction
  d-profile similarity to the group of microtubule stabilizing compounds (taxol second d-profile, epothilone B, griseofulvin): further away

## NC(=O)NO [hydroxy urea-2, hydroxy urea]
DNA-p53-cFos marker set
  most similar d-profiles (category prediction): most similar to aphidicolin and methotrexate

## CC(=O)O[C@H]1C(=O)[C@@]2(C)[C@H]([C@H](OC(=O)c3ccccc3)[C@]3(O)C[C@H](OC(=O)[C@H](O)[C@@H](NC(=O)c4ccccc4)c4ccccc4)C(C)=C1C3(C)C)[C@]1(OC(C)=O)CO[C@@H]1C[C@@H]2O [taxol, Taxol]
Across all four marker sets, 13 threefold titrations
  number of d-profiles: 2
Category prediction
  compound closest to first d-profile: closest to sulindac sulfide
  compound closest to second d-profile: closest to epothilone B and griseofulvin
